Reference: ChEMBL document CHEMBL4028831, “Improvement of hERG-ROMK index of spirocyclic ROMK inhibitors through scaffold optimization and incorporation of novel pharmacophores” (Bioorg Med Chem Lett, 2017)
Active and inactive are the calls of the source. No cut-off for these calls is given here.

Key:
Rattus norvegicus [1] = assay: Antihypertensive activity in rat spontaneous hypertensive model assessed as induction of kaliuresis at 3 mg/kg, po qd measured after 3 days; type: functional, organism-based
Rattus norvegicus [2] = assay: Antihypertensive activity in rat spontaneous hypertensive model assessed as change in systolic blood pressure at 3 mg/kg, po qd measured after 3 days; type: functional
Rattus norvegicus [3] = assay: Antihypertensive activity in rat spontaneous hypertensive model assessed as induction of natriuresis at 3 mg/kg, po qd measured after 3 days; type: functional, organism-based
Rattus norvegicus [4] = assay: Antihypertensive activity in rat spontaneous hypertensive model assessed as induction of diuresis at 3 mg/kg, po qd measured after 3 days; type: functional, organism-based
[5] = molecular target: T1, ATP-sensitive inward rectifier potassium channel 1 (Homo sapiens, UniProt P48048); assay: Inhibition of human ROMK channel expressed in HEK293 cells after 30 mins by FLIPR based thallium flux assay; type: cell-based
T1 sequence (P48048 whole entry): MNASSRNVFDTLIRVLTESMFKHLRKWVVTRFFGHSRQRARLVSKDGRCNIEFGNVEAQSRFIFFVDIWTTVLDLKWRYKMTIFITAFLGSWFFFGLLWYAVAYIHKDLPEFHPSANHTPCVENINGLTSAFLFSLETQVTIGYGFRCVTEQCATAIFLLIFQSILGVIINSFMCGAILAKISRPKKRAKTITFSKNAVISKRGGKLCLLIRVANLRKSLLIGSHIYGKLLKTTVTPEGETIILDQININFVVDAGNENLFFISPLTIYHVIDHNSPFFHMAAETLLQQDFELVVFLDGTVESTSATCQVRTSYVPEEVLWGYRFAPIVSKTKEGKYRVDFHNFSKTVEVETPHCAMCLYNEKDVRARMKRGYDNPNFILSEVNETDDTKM

[6] = molecular target: Voltage-gated inwardly rectifying potassium channel KCNH2 (Homo sapiens, UniProt Q12809); assay: Displacement of [35S]MK499 from human ERG expressed in HEK293 cells
Sequence of Voltage-gated inwardly rectifying potassium channel KCNH2 (Q12809 whole entry): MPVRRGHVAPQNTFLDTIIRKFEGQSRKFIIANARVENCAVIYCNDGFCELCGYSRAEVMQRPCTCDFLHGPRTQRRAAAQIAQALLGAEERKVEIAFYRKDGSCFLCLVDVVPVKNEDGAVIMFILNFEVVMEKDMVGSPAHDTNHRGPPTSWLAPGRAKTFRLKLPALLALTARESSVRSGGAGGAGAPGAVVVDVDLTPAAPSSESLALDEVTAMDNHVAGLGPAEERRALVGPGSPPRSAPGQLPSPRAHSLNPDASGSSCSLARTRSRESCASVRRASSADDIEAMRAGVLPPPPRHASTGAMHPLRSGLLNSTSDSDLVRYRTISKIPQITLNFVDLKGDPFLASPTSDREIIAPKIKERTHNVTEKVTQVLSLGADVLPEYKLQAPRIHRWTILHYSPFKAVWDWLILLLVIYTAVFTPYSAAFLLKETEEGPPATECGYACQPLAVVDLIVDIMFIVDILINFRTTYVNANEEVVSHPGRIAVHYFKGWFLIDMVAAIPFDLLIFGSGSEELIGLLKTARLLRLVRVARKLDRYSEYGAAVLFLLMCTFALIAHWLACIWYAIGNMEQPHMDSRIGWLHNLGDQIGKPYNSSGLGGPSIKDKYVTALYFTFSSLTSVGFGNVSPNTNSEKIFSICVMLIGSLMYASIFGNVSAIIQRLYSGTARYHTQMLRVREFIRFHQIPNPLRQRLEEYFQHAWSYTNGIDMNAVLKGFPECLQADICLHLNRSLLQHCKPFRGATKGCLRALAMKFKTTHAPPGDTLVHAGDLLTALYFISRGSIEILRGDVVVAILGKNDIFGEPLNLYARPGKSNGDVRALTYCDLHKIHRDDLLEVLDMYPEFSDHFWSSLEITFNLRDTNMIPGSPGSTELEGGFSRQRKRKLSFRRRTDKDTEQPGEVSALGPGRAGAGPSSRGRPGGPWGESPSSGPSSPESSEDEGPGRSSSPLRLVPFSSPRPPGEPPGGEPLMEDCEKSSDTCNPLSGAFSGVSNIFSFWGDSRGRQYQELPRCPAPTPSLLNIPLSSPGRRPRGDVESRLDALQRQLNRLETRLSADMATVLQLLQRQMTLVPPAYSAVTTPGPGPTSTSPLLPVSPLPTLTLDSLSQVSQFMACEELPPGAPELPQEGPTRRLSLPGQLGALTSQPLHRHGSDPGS

[7] = Half life in Wistar Han rat at 0.5 mg/kg, iv or 1 mg/kg, po; type: ADME, organism-based; details: in vivo
[8] = Volume of distribution at steady state in Wistar Han rat at 0.5 mg/kg, iv or 1 mg/kg, po; type: ADME, organism-based; details: in vivo, read-out: Vdss
[9] = Oral bioavailability in Wistar Han rat at 1 mg/kg; type: ADME, organism-based; details: in vivo
Rattus norvegicus [10] = assay: Dose normalized AUC in Wistar Han rat at 1 mg/kg, po; type: ADME, organism-based; details: in vivo
[11] = Clearance in Wistar Han rat at 0.5 mg/kg, iv or 1 mg/kg, po; type: ADME, organism-based; details: in vivo
[12] = Clearance in Beagle dog at 1 mg/kg, iv; type: ADME, organism-based, Canis lupus familiaris; details: in vivo
[13] = Half life in Beagle dog at 1 mg/kg, iv; type: ADME, organism-based, Canis lupus familiaris; details: in vivo
[14] = Volume of distribution at steady state in Beagle dog at 1 mg/kg, iv; type: ADME, organism-based, Canis lupus familiaris; details: in vivo, read-out: Vdss
Homo sapiens = species on record: Homo sapiens; assay: Selectivity ratio of IC50 for human ERG expressed in HEK293 cells to IC50 for human ROMK expressed in HEK293 cells; type: cell-based
Rattus norvegicus [15] = assay: Antihypertensive activity in rat spontaneous hypertensive model assessed as change in systolic blood pressure at 25 mg/kg, po qd measured after 3 days; type: functional
[16] = molecular target: T1, ATP-sensitive inward rectifier potassium channel 1; assay: Inhibition of human ROMK expressed in CHO cells at -70 mV holding potential after 6 mins by whole cell patch clamp Qpatch method; type: cell-based
[17] = Clearance in rat at 0.5 mg/kg, iv; details: in vivo

With `Cc1c([C@@H](O)CN2CCC3(CC2)CCN(c2ccns2)C3=O)ccc2c1COC2=O` the Activity (Rattus norvegicus [1]) was “inactive”, the Activity (Rattus norvegicus [2]) was -6 mmHg and the Activity (Rattus norvegicus [3]) was “Active”. The Activity (Rattus norvegicus [4]) was “Active”.
In the case of `Cc1c([C@@H](O)CN2CCC3(CC2)CN(c2ccns2)C(=O)O3)ccc2c1COC2=O`, the IC50 [5] is reported as 5.1 µM.
In the case of `Cc1c([C@@H](O)CN2CCC3(CC2)CCN(c2cn(C)c(=O)cn2)C3=O)ccc2c1COC2=O`, the IC50 [6] is reported as > 60 µM.
Compound `Cc1c([C@@H](O)CN2CCC3(CC2)CCN(c2ccncc2)C3=O)ccc2c1COC2=O` has a half-life [7] of 2 h, a Vd [8] of 21.5 L/kg and a bioavailability [9] of 37%. It also gave an AUC/dose (Rattus norvegicus [10]) of 0.11 µM·kg·h/mg and a clearance [11] of 7.68 L/h/kg.
For `Cc1c([C@@H](O)[C@H](C)N2CCC3(CCN(c4ccc(=O)n(C)n4)C3=O)CC2)ccc2c1COC2=O`, the IC50 [6] was > 60 µM.
In the case of `COc1nsc(N2CCC3(CCN(C[C@H](O)c4ccc5c(c4C)COC5=O)CC3)C2=O)n1`, the Activity (Rattus norvegicus [1]) is reported as “inactive”, the half-life [7] is reported as 4.7 h and the Activity (Rattus norvegicus [2]) is reported as -23 mmHg. For the same compound, the Activity (Rattus norvegicus [3]) was “Active”, the clearance [12] was 1.46 L/h/kg and the Vd [8] was 3 L/kg. The bioavailability [9] was 47%, the half-life [13] was 1.3 h and the AUC/dose (Rattus norvegicus [10]) was 1.8 µM·kg·h/mg. For the same compound, the Vd [14] was 1.7 L/kg, the Activity (Rattus norvegicus [4]) was “Active” and the clearance [11] was 0.576 L/h/kg.
Work on `Cc1c([C@@H](O)CN2CCC3(CC2)CCN(c2ccc(=O)n(C4CCCC4)n2)C3=O)ccc2c1COC2=O` yielded an IC50 [5] of 0.041 µM, an IC50 [6] of 13.5 µM and a Ratio IC50 (Homo sapiens) of 329.
`CCn1nc(N2CCC3(CCN(C[C@H](O)c4ccc5c(c4C)COC5=O)CC3)C2=O)ccc1=O` gave an IC50 [6] of 7.6 µM and a Ratio IC50 (Homo sapiens) of 99.
Work on `Cc1cc(=O)n(C)nc1N1CCC2(CCN(C[C@H](O)c3ccc4c(c3C)COC4=O)CC2)C1=O` yielded an IC50 [5] of 1.05 µM.
In the case of `Cc1c([C@@H](O)CN2CCC3(CC2)CCN(c2ccn(C)c(=O)c2)C3=O)ccc2c1COC2=O`, the IC50 [5] is reported as 7.6 µM.
In the case of `Cn1nc(N2CCC3(CCN(C[C@H](O)c4ccc(-n5cnnn5)nn4)CC3)C2=O)ccc1=O`, the IC50 [5] is reported as 0.57 µM, the IC50 [6] is reported as 3.1 µM and the Ratio IC50 (Homo sapiens) is reported as 5.
For `Cc1c([C@@H](O)CN2CCC3(CC2)CCN(c2cnn(C)c(=O)c2)C3=O)ccc2c1COC2=O`, the IC50 [5] was 0.18 µM.
With `Cc1c([C@@H](O)CN2CCC3(CC2)CCN(c2ccns2)C3)ccc2c1COC2=O` the IC50 [5] was 0.027 µM.
With `Cc1nsc(N2CCC3(CCN(C[C@H](O)c4ccc5c(c4C)COC5=O)CC3)C2)n1` the IC50 [6] was 4.2 µM and the Ratio IC50 (Homo sapiens) was 17.
`NS(=O)(=O)c1cc2c(cc1Cl)NCNS2(=O)=O` [HYDROCHLOROTHIAZIDE] gave an Activity (Rattus norvegicus [15]) of -7 mmHg.
Work on `COc1nccc(N2CCC3(CCN(C[C@H](O)c4ccc5c(c4C)COC5=O)CC3)C2=O)n1` yielded an IC50 [5] of 0.014 µM, a half-life [7] of 4.1 h and an IC50 [16] of 0.005 µM. It also gave a clearance [12] of 0.582 L/h/kg, a Vd [8] of 1.8 L/kg and a bioavailability [9] of 80%. It also gave a half-life [13] of 1 h, an AUC/dose (Rattus norvegicus [10]) of 3.8 µM·kg·h/mg and a Vd [14] of 0.7 L/kg. It also gave a clearance [11] of 0.468 L/h/kg.
With `Cc1nccc(N2CCC3(CCN(C[C@H](O)c4ccc5c(c4C)COC5=O)CC3)C2=O)n1` the IC50 [5] was 0.19 µM, the Activity (Rattus norvegicus [1]) was “inactive” and the half-life [7] was 2.6 h. The Activity (Rattus norvegicus [2]) was -11 mmHg, the Activity (Rattus norvegicus [3]) was “Active” and the Vd [8] was 4.4 L/kg. The bioavailability [9] was 120%, the AUC/dose (Rattus norvegicus [10]) was 1.6 µM·kg·h/mg and the Activity (Rattus norvegicus [4]) was “Active”. For the same compound, the clearance [11] was 1.82 L/h/kg.
For `Cc1c([C@@H](O)CN2CCC3(CC2)CN(c2ccc(=O)n(C)n2)C3)ccc2c1COC2=O`, the IC50 [5] was > 2 µM.
With `Cc1cc(N2CCC3(CCN(C[C@H](O)c4ccc5c(c4C)COC5=O)CC3)C2=O)sn1` the IC50 [5] was 0.018 µM, the half-life [7] was 2.4 h and the IC50 [16] was 0.012 µM. The Vd [8] was 3.2 L/kg, the bioavailability [9] was 45% and the AUC/dose (Rattus norvegicus [10]) was 0.73 µM·kg·h/mg. It also gave a clearance [11] of 1.38 L/h/kg.
Work on `Cc1c([C@@H](O)CN2CCC3(CC2)CCN(c2cc(-c4ccccc4)no2)C3=O)ccc2c1COC2=O` yielded an IC50 [6] of 0.054 µM and a Ratio IC50 (Homo sapiens) of 0.11.
For `Cc1c([C@@H](O)CN2CCC3(CC2)CCN(c2ccc(S(C)(=O)=O)cn2)C3)ccc2c1COC2=O`, the clearance [17] was 1.45 L/h/kg.
`Cc1c([C@@H](O)CN2CCC3(CC2)CCN(c2ccc(=O)n(C(F)F)n2)C3=O)ccc2c1COC2=O` showed an IC50 [5] of 0.13 µM, an IC50 [6] of 19.1 µM and a Ratio IC50 (Homo sapiens) of 147.
For `COc1cc(N2CCC3(CCN(C[C@H](O)c4ccc5c(c4C)COC5=O)CC3)C2=O)ccn1`, the half-life [7] was 4.1 h, the Vd [8] was 5 L/kg and the bioavailability [9] was 66%. The AUC/dose (Rattus norvegicus [10]) was 1.2 µM·kg·h/mg and the clearance [11] was 1.25 L/h/kg.
For `Cc1nsc(N2CCC3(CCN(C[C@H](O)c4ccc5c(c4C)COC5=O)CC3)C2=O)n1`, the Activity (Rattus norvegicus [1]) was “inactive”, the half-life [7] was 1.9 h and the IC50 [16] was 0.008 µM. For the same compound, the Activity (Rattus norvegicus [2]) was -10 mmHg, the Activity (Rattus norvegicus [3]) was “Active” and the Vd [8] was 4.2 L/kg. The bioavailability [9] was 106%, the AUC/dose (Rattus norvegicus [10]) was 1 µM·kg·h/mg and the Activity (Rattus norvegicus [4]) was “Active”. The clearance [11] was 2.46 L/h/kg.
For `Cc1nc(-n2cnnn2)ccc1[C@@H](O)CN1CCC2(CC1)CCN(c1ccc(=O)n(C)n1)C2=O`, the IC50 [6] was 17.2 µM and the Ratio IC50 (Homo sapiens) was 66.
